Test results as given in US20240246937A1 (MERCK SHARP & DOHME LLC, priority 2021, published 2024).

Molecular target: recombinant IL4I1 (Homo sapiens (Human), UniProt Q96RQ9)
Assay: IL4I1 Enzymatic Assay (Amplex Red/HRP coupled fluorescence detection of H2O2)
Assay type: biochemical
Conditions: 240 min; recombinant IL4I1, four-hour pre-incubation with compound
In short: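 Ten-point, 1:3 compound titrations were fitted by four-parameter sigmoidal regression to give EC50. Resorufin fluorescence (544/590 nm) from Amplex Red/HRP-coupled H2O2 detection was read 120 min after adding 1 mM each aromatic amino acid to 1 nM IL4I1, following a 4 h compound pre-incubation in pH 7.0 Hepes buffer.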

recombinant IL4I1, sequence (Q96RQ9 22-567): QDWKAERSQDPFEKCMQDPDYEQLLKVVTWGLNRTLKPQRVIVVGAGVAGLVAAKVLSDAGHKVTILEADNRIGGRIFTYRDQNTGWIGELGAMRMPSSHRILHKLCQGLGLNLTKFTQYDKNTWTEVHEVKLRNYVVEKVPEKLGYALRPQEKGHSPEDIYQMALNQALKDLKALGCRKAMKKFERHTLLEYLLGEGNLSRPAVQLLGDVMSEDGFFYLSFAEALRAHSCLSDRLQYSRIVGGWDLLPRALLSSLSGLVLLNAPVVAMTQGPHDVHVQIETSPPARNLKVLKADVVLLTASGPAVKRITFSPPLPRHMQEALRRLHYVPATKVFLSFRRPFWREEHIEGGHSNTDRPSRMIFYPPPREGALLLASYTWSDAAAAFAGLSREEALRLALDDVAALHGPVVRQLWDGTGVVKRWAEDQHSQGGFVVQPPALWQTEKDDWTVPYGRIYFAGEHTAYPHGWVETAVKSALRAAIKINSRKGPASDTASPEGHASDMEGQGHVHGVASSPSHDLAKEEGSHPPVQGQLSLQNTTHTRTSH

EC50: 48 nM
SMILES: O=C1C(=O)N(C23CC(C2)C3)CCN1Cc1ccc(-n2nccn2)nn1 [Example 401, 1-((6-(2H-1,2,3-triazol-2-yl)pyridazin-3-yl)methyl)-4-(bicyclo[1.1.1]pentan-1-yl)piperazine-2,3-dione]
